Like-named read-outs stand apart in the source and are kept apart here.
Columns and labels:
human islets [1] = test: Cytokine (IL-1β and IFN-γ) induced apoptotic activity in human islets; format: cell-based; settings: FIG. 9
human islets [2] = test: High glucose/palmitate induced apoptotic activity in human islets; design: MST1 phosphorylation (pMST1): dose or concentration left out as unconfirmed; settings: HG/Pal, FIG. 8
Description: Freshly isolated human islets from a single donor were exposed to high glucose and palmitate (HG/Pal) to induce apoptosis.

T1D model mice = T1D model mice treated with streptozotocin (STZ); format: in vivo
MST1 [3] = molecular target: T1, MST1 (Homo sapiens (Human), UniProt Q13043); test: MST1 kinase activity; format: biochemical
T1 sequence (Q13043 whole entry): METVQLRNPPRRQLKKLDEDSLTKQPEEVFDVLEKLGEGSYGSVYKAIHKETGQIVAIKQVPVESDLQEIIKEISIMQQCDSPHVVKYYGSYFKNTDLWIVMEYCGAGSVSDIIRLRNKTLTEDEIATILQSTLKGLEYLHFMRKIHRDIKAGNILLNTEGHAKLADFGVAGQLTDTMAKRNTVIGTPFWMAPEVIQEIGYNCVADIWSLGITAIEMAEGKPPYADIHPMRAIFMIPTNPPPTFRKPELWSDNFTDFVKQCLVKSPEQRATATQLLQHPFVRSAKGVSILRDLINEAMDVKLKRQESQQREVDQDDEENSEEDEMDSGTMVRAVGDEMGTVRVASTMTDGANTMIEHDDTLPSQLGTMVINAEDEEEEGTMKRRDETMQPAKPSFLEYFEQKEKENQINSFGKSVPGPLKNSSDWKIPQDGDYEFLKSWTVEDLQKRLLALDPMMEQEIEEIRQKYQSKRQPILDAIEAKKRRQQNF

Beta cell = Beta cell apoptosis with increasing concentrations of neratinib (FIG. 3); format: cell-based
MST1 [4] = molecular target: T1, MST1; test: MST1 biochemical LanthaScreen Eu Kinase Binding Assay; settings: read-out: Kinase Binding assay-MST1 IC50
Description: (§1) MST1 and MST2 biochemical LanthaScreen Eu Kinase Binding Assay was based on the binding and displacement of kinase tracer to the kinase of interest. Compounds in 1000×DMSO stock solution was dispensed using automated dispensing system (Labcyte) to 384 well Corning Microplate at 15 nL, 5 uL of Kinase buffer A was added to each well. Plates were shaken and incubated for 1 min to ensure well dissolution of compounds.

MST2 = MST2 (Homo sapiens (Human), UniProt Q13188); test: MST2 biochemical LanthaScreen Eu Kinase Binding Assay
Sequence of MST2 (Q13188 whole entry): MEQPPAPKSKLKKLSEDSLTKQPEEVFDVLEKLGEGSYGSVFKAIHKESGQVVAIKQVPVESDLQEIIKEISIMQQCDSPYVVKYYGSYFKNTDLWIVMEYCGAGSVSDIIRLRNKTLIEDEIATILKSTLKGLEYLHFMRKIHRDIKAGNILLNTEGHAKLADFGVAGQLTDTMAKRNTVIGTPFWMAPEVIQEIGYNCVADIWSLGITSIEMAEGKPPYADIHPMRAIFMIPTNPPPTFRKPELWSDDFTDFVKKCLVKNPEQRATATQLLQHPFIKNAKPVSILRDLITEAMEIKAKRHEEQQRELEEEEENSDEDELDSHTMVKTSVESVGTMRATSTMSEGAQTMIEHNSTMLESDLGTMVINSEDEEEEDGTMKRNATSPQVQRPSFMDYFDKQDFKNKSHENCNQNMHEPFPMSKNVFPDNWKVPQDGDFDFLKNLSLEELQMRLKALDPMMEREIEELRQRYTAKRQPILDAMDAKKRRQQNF
Description: as §1

[5] = read-out: Kinase Binding assay-MST2 IC50

Compound	IC50 (MST1 [4])	IC50 (MST2)	IC50 (MST2; [5])	also measured
CCOc1cc2ncc(C#N)c(Nc3ccc(OCc4ccccn4)c(Cl)c3)c2cc1NC(=O)/C=C/CN(C)C [neratinib]	–	–	–	Caspase 3 cleavage (human islets [1]; 10 μM neratinib): inhibited; MST1 phosphorylation (human islets [1]; 10 μM neratinib): inhibited; Caspase 3 cleavage (human islets [1]; 25 μM neratinib): inhibited; MST1 phosphorylation (human islets [1]; 25 μM neratinib): inhibited; induction of cleaved caspase 3 (Cl Casp3) (human islets [2]; 25 M neratinib (so in the source)): inhibited; MST1 phosphorylation (pMST1) (human islets [2]): inhibited; hyperglycemia (T1D model mice; T1D model mice treated with STZ, FIG. 4): attenuated; responses to acute glucose challenge (T1D model mice; T1D model mice, FIG. 5): improved; blood glucose (T1D model mice; T1D model mice, FIG. 6): reduced; serum insulin (T1D model mice; T1D model mice, FIG. 7): increased; MST1 kinase activity (MST1 [3]): inhibitor; Beta cell apoptosis (Beta cell): decrease
CCOc1cc2ncc(C#N)c(Nc3ccc(OCc4ccccn4)c(Cl)c3)c2cc1NC(=O)CCCN1CCCC1 [Example 95, N-(4-(3-chloro-4-(pyridin-2-ylmethoxy)phenylamino)-3-cyano-7-ethoxyquinolin-6-yl)-4-(pyrrolidin-1-yl)butanamide]	< 100 nM	100 to 1000 nM	–	–
CCOc1cc2ncc(C#N)c(Nc3cc(Cl)c(OCc4ncccc4C)c(Cl)c3)c2cc1NC(=O)CCCN(C)C [Example 26]	< 100 nM	–	< 100 nM	–
CCOc1cc2ncc(C#N)c(Nc3ccc(CCc4ccccn4)c(Cl)c3)c2cc1NC(=O)CCCN(C)C [Example 107, N-(4-(3-chloro-4-(2-(pyridin-2-yl)ethyl)phenylamino)-3-cyano-7-ethoxyquinolin-6-yl)-4-(dimethylamino)butanamide]	100 to 1000 nM	–	100 to 1000 nM	–
CCOc1cc2ncc(C#N)c(Nc3ccc(OCc4cnc5c(c4)OCCO5)c(Cl)c3)c2cc1NC(=O)CCCN(C)C [Example 43]	100 to 1000 nM	1000 to 10000 nM	–	–
CCOc1cc2ncc(C#N)c(Nc3ccc(OCc4ccccn4)c(Cl)c3)c2cc1NC(=O)CCCN1CCCCC1 [Example 97]	< 100 nM	100 to 1000 nM	–	–
CCOc1cc2ncc(C#N)c(Nc3ccc(OCc4cccc(F)n4)c(Cl)c3)c2cc1NC(=O)CCCN(C)C [Example 4]	< 100 nM	–	< 100 nM	–
CCOc1cc2ncc(C#N)c(Nc3ccc(OCc4ncccc4C)cc3F)c2cc1NC(=O)CCCN(C)C [Example 23]	< 100 nM	–	< 100 nM	–

From patent US10774068B2, “Composition and methods for inhibiting mammalian sterile 20-like kinase 1” (The Scripps Research Institute, priority 2015, dated 2020)
